Assay results taken from patent US10213415B2, “Compounds as opioid receptor modulators” (JANSSEN PHARMACEUTICA NV, priority 2004, dated 2019).
Values joined by “and” are separate entries in the source; they are usually repeats but may differ in a detail not shown here. Equal entries are not always repeated. Where two headings read alike, the source gives them in different places.

What was measured:
[1] = target: T1, delta opioid receptor (CHO-hδ cell membranes) (Homo sapiens, UniProt P41143); experiment: Delta Opioid Receptor Functional Assay: [35S]GTPγS Binding in CHO-hδ Cell Membranes, Version 1; format: biochemical; conditions: read-out: DOR GTP-binding Assay_v1 EC50
T1 construct: purchased Receptor Biology, Inc. (Baltimore, Md.); host or cells: CHO cells (recombinant expression)
T1 sequence (P41143 whole entry): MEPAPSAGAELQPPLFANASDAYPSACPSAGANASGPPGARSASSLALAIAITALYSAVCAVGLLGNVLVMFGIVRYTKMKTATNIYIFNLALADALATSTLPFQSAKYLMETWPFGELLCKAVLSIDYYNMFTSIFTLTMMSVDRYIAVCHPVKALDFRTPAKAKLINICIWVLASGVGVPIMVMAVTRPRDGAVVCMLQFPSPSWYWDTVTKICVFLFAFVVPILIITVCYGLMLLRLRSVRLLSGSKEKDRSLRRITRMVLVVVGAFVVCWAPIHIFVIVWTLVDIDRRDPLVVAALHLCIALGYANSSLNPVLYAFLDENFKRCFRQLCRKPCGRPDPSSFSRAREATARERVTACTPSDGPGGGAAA
Protocol: CHO-hδ cell membranes were purchased from Receptor Biology, Inc. (Baltimore, Md.). 10 mg/ml of membrane protein suspended in 10 mM TRIS-HC pH 7.2, 2 mM EDTA, 10% sucrose.
Membranes were maintained at 4-8° C. A portion (1 ml) of membranes was added into 15 mL cold binding assay buffer. The assay buffer contained 50 mM HEPES, pH 7.6, 5 mM MgCl2, 100 mM NaCl, 1 mM DTT and 1 mM EDTA. The membrane suspension was homogenized with a Polytron for 2 times and centrifuged at 3000 rpm for 10 min. The supernent was then centrifuged at 18,000 rpm for 20 min. The pellet was saved in a tube and 10 ml assay buffer was added into the tube. The pellet and buffer were mixed with a Polytron.
The pellet membranes (20 μg/ml) were preincubated with SPA (10 mg/ml) at 25° C. for 45 min in the assay buffer. The SPA (5 mg/ml) coupled with membranes (10 μg/ml) was then incubated with 0.5 nM [^35S]GTPγS in the same HEPES buffer containing 50 μM GDP in total volume of 200 μl. Increasing concentrations of receptor agonists were used to stimulate [^35S]GTPγS binding. The basal binding was tested in the absent agonists and no specific binding was tested in the present 10 μM unlabeled GTPγS. The data were analyzed on a Top counter.
Data The % of Basal=(stimulate−non specific)*100/(basal−non specific). EC50 values were calculated using a Prism program.

[2] = test system: novel environment-stressed mice; experiment: In Vivo Assay-Stress-Induced Fecal Output (Fecal Output for 1 hr); set-up: species or system mouse; conditions: for Fecal Output (# pellets) cpd: novel environment-stressed mice; for Fecal Output (# pellets) cpd / response vs control in vivo at 10 mg/kg / response vs control in vivo at 30 mg/kg: 1 hr; for response vs control in vivo at 10 mg/kg / response vs control in vivo at 30 mg/kg: Mus musculus, po, 1 h; for # of pellets, Compound (m) 3.0 / Fecal pellet output, Compound (% control) 3.0 / Fecal pellet output, Compound (% NES) 3.0: dose 3.0, oral; for # of pellets, Compound (m) 10.0 / Fecal pellet output, Compound (% control) 10.0 / Fecal pellet output, Compound (% NES) 10.0: dose 10.0, oral; for # of pellets, Compound (m) 30.0 / Fecal pellet output, Compound (% control) 30.0: dose 30.0, oral; for Fecal pellet output, Compound (% NES) 30: dose 30, oral
Procedure, shortened: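 Adult male Crl:CD-1(ICR) mice (˜30-35 g; at least 10 per dose group) were split into acclimated non-stressed controls, held individually for 16-18 hr in wire-mesh-bottom cages, and non-acclimated stressed groups. Mice were dosed intragastrically with vehicle or test compound in 0.5% methylcellulose, housed individually in novel cages over absorbent cardboard, and fecal pellets per mouse were counted hourly.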

[3] = 10 mg/kg oral, relative to acclimated control, read-out: Fecal Output cpd % control
[4] = 10 mg/kg oral, relative to novel environment stress (NES) vehicle group, read-out: Fecal Output cpd % NES
[5] = 30 mg/kg oral, relative to novel environment stress (NES) vehicle group, read-out: Fecal Output cpd % NES
[6] = NES mice, vs acclimated control
[7] = 30 mg/kg oral, relative to acclimated control, read-out: Fecal Output cpd % control

Cc1cc(O)cc(C)c1C[C@H](N)C(=O)N(Cc1nc(-c2ccccc2)c[nH]1)C(C)C [Cpd 194]
EC50 [1]: 0.189 µM | Fecal Output (# pellets) cpd ([2]; 10 mg/kg oral): 11.8 pellets | response vs control in vivo at 10 mg/kg [2, 3]: 218% | response vs control in vivo at 10 mg/kg [2, 4]: 94.4%

CCN(C(=O)[C@@H](N)Cc1c(C)cc(O)cc1C)[C@@H](C)c1nc(-c2ccccc2)c[nH]1 [Cpd 216]
EC50 [1]: 0.016 µM | Fecal Output (# pellets) cpd ([2]; 10 mg/kg oral): 4.9 pellets | response vs control in vivo at 10 mg/kg [2, 3]: 136% | response vs control in vivo at 10 mg/kg [2, 4]: 47.6%

Cc1cc(O)cc(C)c1C[C@H](N)C(=O)N(C)[C@@H](C)c1nc(-c2ccccc2)c[nH]1 [Cpd 207]
EC50 [1]: 0.00865 µM and 0.012 µM | response vs control in vivo at 30 mg/kg [2, 5]: 49.6% | # of pellets, Compound (m) 0.3 ([2]; dose 0.3, oral, NES mice, fecal output 1 hr): 11.4 | Fecal pellet output, Compound (% control) 0.3 ([2]; dose 0.3, oral, NES mice, vs acclimated control): 219.2 % control | Fecal pellet output, Compound (% NES) 0.3 ([2]; dose 0.3, oral, vs vehicle NES group): 100 % NES | # of pellets, Compound (m) 0.5 ([2]; dose 0.5, oral, NES mice, fecal output 1 hr): 9.4 | Fecal pellet output, Compound (% control) 0.5 ([2]; dose 0.5, oral, NES mice, vs acclimated control): 195.8 % control | Fecal pellet output, Compound (% NES) 0.5 ([2]; dose 0.5, oral, vs vehicle NES group): 109 % NES | # of pellets, Compound (m) 3.0 ([2]; NES mice, fecal output 1 hr): 12 and 7.3 | Fecal pellet output, Compound (% control) 3.0 [2, 6]: 228.8 % control and 202.8 % control | Fecal pellet output, Compound (% NES) 3.0 ([2]; vs vehicle NES group): 104.4 % NES and 112.3 % NES | # of pellets, Compound (m) 5.0 ([2]; dose 5.0, oral, NES mice, fecal output 1 hr): 8.6 | Fecal pellet output, Compound (% control) 5.0 ([2]; dose 5.0, oral, NES mice, vs acclimated control): 179.2 % control | Fecal pellet output, Compound (% NES) 5.0 ([2]; dose 5.0, oral, vs vehicle NES group): 100 % NES | # of pellets, Compound (m) 6.0 ([2]; dose 6.0, oral, NES mice, fecal output 1 hr): 7.5 | Fecal pellet output, Compound (% control) 6.0 ([2]; dose 6.0, oral, NES mice, vs acclimated control): 220.6 % control | Fecal pellet output, Compound (% NES) 6.0 ([2]; dose 6.0, oral, vs vehicle NES group): 69.44 % NES | # of pellets, Compound (m) 10.0 ([2]; NES mice, fecal output 1 hr): 4.9 and 6.7 and 5.5 and 4.8 | Fecal pellet output, Compound (% control) 10.0 [2, 6]: 94.2 % control and 139.6 % control and 161.8 % control and 133.3 % control | Fecal pellet output, Compound (% NES) 10.0 ([2]; vs vehicle NES group): 42.98 % NES and 77.91 % NES and 50.93 % NES and 73.85 % NES | # of pellets, Compound (m) 30.0 ([2]; NES mice, fecal output 1 hr): 3.5 and 3.4 | Fecal pellet output, Compound (% control) 30.0 [2, 6]: 103 % control and 94 % control | Fecal pellet output, Compound (% NES) 30 ([2]; vs vehicle NES group): 32.41 % NES and 52.31 % NES

CCN(C(=O)[C@@H](N)Cc1c(C)cc(O)cc1C)[C@H](C)c1nc(-c2ccccc2)c[nH]1 [Cpd 217]
EC50 [1]: 0.082 µM

C[C@H](c1nc(-c2ccccc2)c[nH]1)N(Cc1ccccc1)C(=O)[C@@H](N)Cc1ccc(O)cc1 [Cpd 221]
EC50 [1]: 0.308 µM

Cc1cc(C(N)=O)cc(C)c1C[C@H](N)C(=O)N(Cc1ccccc1)[C@@H](C)c1nc(-c2ccccc2)c[nH]1 [Cpd 114]
EC50 [1]: 0.035 µM | Fecal Output (# pellets) cpd ([2]; 30 mg/kg oral): 7.8 pellets | response vs control in vivo at 30 mg/kg [2, 7]: 108% | response vs control in vivo at 30 mg/kg [2, 5]: 75.7% | # of pellets, Compound (m) 3.0 ([2]; NES mice, fecal output 1 hr): 9.6 | Fecal pellet output, Compound (% control) 3.0 [2, 6]: 282.4 % control | Fecal pellet output, Compound (% NES) 3.0 ([2]; vs vehicle NES group): 96 % NES | # of pellets, Compound (m) 10.0 ([2]; NES mice, fecal output 1 hr): 7.7 | Fecal pellet output, Compound (% control) 10.0 [2, 6]: 226.5 % control | Fecal pellet output, Compound (% NES) 10.0 ([2]; vs vehicle NES group): 77 % NES | # of pellets, Compound (m) 30.0 ([2]; NES mice, fecal output 1 hr): 5.4 | Fecal pellet output, Compound (% control) 30.0 [2, 6]: 159 % control | Fecal pellet output, Compound (% NES) 30 ([2]; vs vehicle NES group): 54 % NES

Cc1cc(O)cc(C)c1C[C@H](N)C(=O)N(C)[C@H](C)c1nc(-c2ccccc2)c[nH]1 [Cpd 206]
EC50 [1]: 0.037 µM | Fecal Output (# pellets) cpd ([2]; 10 mg/kg oral): 8.6 pellets | response vs control in vivo at 10 mg/kg [2, 3]: 226% | response vs control in vivo at 10 mg/kg [2, 4]: 65.6%

CCN(C(=O)[C@@H](N)Cc1ccc(O)cc1)[C@@H](C)c1nc(-c2ccccc2)c[nH]1 [Cpd 215]
EC50 [1]: 1.06 µM

CC(C)N(C(=O)[C@@H](N)Cc1ccc(O)cc1)[C@@H](C)c1nc(-c2ccccc2)c[nH]1 [Cpd 225]
EC50 [1]: 2.19 µM | Fecal Output (# pellets) cpd ([2]; 30 mg/kg oral): 7.3 pellets | response vs control in vivo at 30 mg/kg [2, 7]: 235% | response vs control in vivo at 30 mg/kg [2, 5]: 152%

CCN(C(=O)[C@@H](N)Cc1ccc(O)cc1)[C@H](C)c1nc(-c2ccccc2)c[nH]1 [Cpd 214]
EC50 [1]: 26 µM

Cc1cc(O)cc(C)c1C[C@H](N)C(=O)N(Cc1nc(-c2ccccc2)c(C)[nH]1)C(C)C [Cpd 166]
EC50 [1]: 0.021 µM and 0.071 µM

Cc1cc(O)cc(C)c1C[C@H](N)C(=O)N(Cc1nc(-c2ccccc2)c[nH]1)C1CCCCC1 [Cpd 190]
EC50 [1]: 3.83 µM

C[C@@H](c1nc(-c2ccccc2)c[nH]1)N(Cc1ccccc1)C(=O)[C@@H](N)Cc1ccc(O)cc1 [Cpd 219]
EC50 [1]: 3.56 µM

C[C@H](c1nc(-c2ccccc2)c[nH]1)N(C)C(=O)[C@@H](N)Cc1ccc(C(N)=O)cc1 [Cpd 203]
EC50 [1]: 0.515 µM

Cc1cc(O)cc(C)c1C[C@H](N)C(=O)N(C)Cc1nc(-c2ccccc2)c[nH]1 [Cpd 199]
EC50 [1]: 0.217 µM | response vs control in vivo at 10 mg/kg [2, 4]: 86.7%

Cc1cc(O)cc(C)c1C[C@H](N)C(=O)N(Cc1nc(-c2ccccc2)c[nH]1)CC1CC1 [Cpd 192]
EC50 [1]: 0.076 µM | Fecal Output (# pellets) cpd ([2]; 10 mg/kg oral): 10.5 pellets | response vs control in vivo at 10 mg/kg [2, 3]: 194% | response vs control in vivo at 10 mg/kg [2, 4]: 84%

Cc1cc(O)cc(C)c1C[C@H](N)C(=O)N(Cc1nc(-c2cc(C(F)(F)F)cc(C(F)(F)F)c2)c(C)[nH]1)C(C)C [Cpd 164]
EC50 [1]: 2.5 µM

Cc1ccccc1-c1nc(CN(C(=O)[C@@H](N)Cc2c(C)cc(O)cc2C)C(C)C)[nH]c1C [Cpd 165]
EC50 [1]: 0.231 µM

Cc1cc(O)cc(C)c1C[C@H](N)C(=O)N(Cc1nc(-c2ccc(F)cc2)c(C)[nH]1)C(C)C [Cpd 163]
EC50 [1]: 0.021 µM

Cc1cc(C(N)=O)cc(C)c1C[C@H](N)C(=O)N(Cc1ccc(C(=O)O)cc1)[C@@H](C)c1nc(-c2ccccc2)c[nH]1 [Cpd 50]
Fecal Output (# pellets) cpd ([2]; 30 mg/kg oral): 3.3 pellets | response vs control in vivo at 30 mg/kg [2, 7]: 144% | response vs control in vivo at 30 mg/kg [2, 5]: 47.1%

Cc1cc(O)cc(C)c1C[C@H](N)C(=O)N(Cc1ccccc1)[C@@H](C)c1nc(-c2ccccc2)c[nH]1 [Cpd 218]
EC50 [1]: 0.02 µM | Fecal Output (# pellets) cpd ([2]; 30 mg/kg oral): 3.7 pellets | response vs control in vivo at 30 mg/kg [2, 7]: 138% | response vs control in vivo at 30 mg/kg [2, 5]: 35.4%

Cc1cc(O)cc(C)c1C[C@H](N)C(=O)N(C)[C@@H](C)c1nc(Cc2ccccc2)c[nH]1 [Cpd 205]
EC50 [1]: 0.032 µM | Fecal Output (# pellets) cpd ([2]; 30 mg/kg oral): 2.3 pellets | response vs control in vivo at 30 mg/kg [2, 7]: 70.7% | response vs control in vivo at 30 mg/kg [2, 5]: 24.6%
